Patent publication US5137889A, “Dihydropyridine derivatives and process for preparing the same” (Otsuka Pharmaceutical Co., Ltd., priority 1983, dated 1992)

Tests used:
[1] = target: T1, Calmodulin-cyclic-AMP phosphodiesterase (Bos taurus, UniProt P62157); assay: Calmodulin-cyclic-AMP phosphodiesterase inhibitory activity (presence of calmodulin); format: biochemical, bovine; conditions: with calmodulin and CaCl2, pH 7.0, 30° C., 30 minutes
T1 construct: tissue Amano & Co. (calmodulin only); host or cells: phosphodiesterase: bovine heart, partially purified; calmodulin: bovine brain
Text: (1) Calmodulin: A calmodulin product manufactured by Amano & Co., which was isolated from the brain of bovine, and purified so as to be considered as a single substance with respect to SDS-page (polyacrylamide gel electrophoresis) method.
(§1) (2) Calmodulin-dependent cyclic-AMP phosphodiesterase (EC 3.1.4.17): An enzyme substance isolated from the heart of bovine and purified partially by a method of modified version of the disclosure in H. C. Ho, T. S. Teo, et al.: "Biochim. Biophys. Acta", 429, 461 (1976).
(§2) (3) 5'-Nucleotidase (EC 3.1.3.5): Grade IV substance (isolated from Crotalus adamanteus venom) manufactured by Sigma & Co.
(§3) (4) Others: Remainder of the reagents used in the test were those of reagent grade chemicals manufactured by Wako Pure-Chemical Industries, Ltd.
(§4) Calmodulin inhibitory activity of each of the test compounds was measured by a method of modified version of the disclosure in T. S. Teo and T. H. Wang: "J. Bio. Chem.", 248, 588 (1973).
(2) Calmodulin: One unit thereof stimulates 0.015 activated unit of cyclic-AMP phosphodiesterase to 50% of the maximum activity of the enzyme.
(§5) (3) 5'-Nucleotidase: One unit thereof hydrolyzes 1.0 micromole of inorganic phosphorus from adnosine 5'-monophosphate per minute at pH 9.0 at 37° C.
(1) Calmodulin-cyclic-AMP phosphodiesterase inhibitory activity:
40 mM of Imidazol, 20 mM of MgCl2, 20 mM of CaC12, 0.008 unit of cyclic-AMP phosphodiesterase, 1.0 unit of calmodulin, 0.2 unit of 5'-nucleotidase and 1.0 ml of 10 mM-tris(hydroxymethyl)aminomethane/HCl buffer solution (pH 7.0) containing 0.5 mM of cyclic-AMP were mixed together, and reacted at 30° C. for 30 minutes. Each of the test compounds was dissolved in methanol or N,N-dimethylformamide as the solvent, provided that the quantity of the solvent was not exceed 2% of the total amount of the mixture. After the reaction was completed, the reaction mixture was ice-cooled, and 0.5 ml each of aqueous solutions of 16.5%-trichloroacetic acid, 1%-thiourea, 3%-ammonium ferrous sulfate were respectively added to the reaction mixture. Further, 0.15 ml of 4.4%-ammonium molibdate solution was added to the mixture and the whole of the mixture was stirred, and was centrifuged at 3,000 r.p.m. for 10 minutes. Then, the centrifuged mixture was allowed to stand at a room temperature for 20 minutes. The OD660 nm (optical density at 660 nm) was measured.

[2] = target: T2, Cyclic-AMP phosphodiesterase (Bos taurus, UniProt P14100); assay: Cyclic AMP phosphodiesterase inhibitory activity (absence of calmodulin, EGTA in place of CaCl2); format: biochemical, bovine; conditions: 1 mM EGTA in place of CaCl2; 3 hours
T2 construct: from tissue; host or cells: bovine heart, partially purified
T2 sequence (P14100 1-514 isoform P14100-2): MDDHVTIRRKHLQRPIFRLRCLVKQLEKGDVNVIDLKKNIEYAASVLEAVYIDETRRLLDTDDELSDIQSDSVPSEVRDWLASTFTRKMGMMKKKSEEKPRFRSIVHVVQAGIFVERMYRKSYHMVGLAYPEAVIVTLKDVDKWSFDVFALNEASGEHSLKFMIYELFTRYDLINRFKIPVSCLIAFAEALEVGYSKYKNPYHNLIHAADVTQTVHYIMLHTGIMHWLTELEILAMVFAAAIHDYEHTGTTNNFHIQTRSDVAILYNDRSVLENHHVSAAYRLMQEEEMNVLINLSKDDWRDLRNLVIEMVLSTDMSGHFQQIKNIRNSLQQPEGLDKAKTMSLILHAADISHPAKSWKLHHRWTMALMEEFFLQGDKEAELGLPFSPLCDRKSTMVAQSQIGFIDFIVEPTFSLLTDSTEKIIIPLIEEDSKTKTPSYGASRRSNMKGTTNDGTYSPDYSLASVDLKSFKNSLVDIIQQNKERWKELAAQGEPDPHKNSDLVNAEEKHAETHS
Text: as §1, §2, §3, §4, §5
(2) Cyclic AMP phosphodiesterase inhibitory activity:
The reaction was conducted by a method similar to that described in (1) as mentioned above, except that 1 mM of EGTA [ethylene glycol-bis(β-amino ethyl ether)-N,N-tetraacetic acid] was used in place of 20 mM of CaCl2. The reaction was conducted for 3 hours.

[3] = system: SHR-rats (spontaneously hypertensive rats); conditions: 30 mg/kg p.o.
Experimental: Systolic blood pressures and heart beat of SHR-rats (spontaneously hypertensive rats) were determined by a "tail cuff method". Thus the test animal was placed in a thermostat chamber (Type: FR-12RS, manufactured by Isuze & Co.) and was warmed at 40° C. for 15 minutes so as to vasodilate the tail arteria, the systolic blood pressures were measured by an electro sphygmomanometer (Type: PE-300, manufactured by Narco-Biosystems, Inc.) and recorded by an ink-writing recorder (Type: RECTI-HORIZ 8s, manufactured by San-Ei Instrument & Co.). The experiments were conducted under non-anesthetized and semi-confinement conditions. The test compound was orally administered forcedly by using a sonde for oral administration. The test compound was suspended in 0.15%-gum arabic powder aqueous solution so as to make the quantity of the test compound to 2.5 ml/kg. The test animal was not fasted, and the systolic blood pressures (mm-Hg) were measured before the administration (hereinafter referred to as "PRE") and after the administration (8, 24, 30, 48, 54 and 72 hours after the administration) of the test compound. The data of systolic blood pressure measured before the administration are shown in absolute value of mmHg, and the data measured after the administration are shown in the differences from the absolute values.

Compound | IC50 ([1]; read-out: Calmodulin-cyclic-AMP phosphodiesterase IC50 (converted)) [µM] | IC50 [2] [µM] | Blood pressure after the administration, 24 hours (difference from the absolute value before administration) [3] [mm-Hg] | Blood pressure after the administration, 30 hours (difference from the absolute value before administration) [3] [mm-Hg] | Blood pressure after the administration, 48 hours (difference from the absolute value before administration) [3] [mm-Hg] | Blood pressure after the administration, 54 hours (difference from the absolute value before administration) [3] [mm-Hg] | Calmodulin-cyclic-AMP phosphodiesterase IC50 [1] [µg/mL] | Cyclic-AMP phosphodiesterase IC50 [2] [µg/mL] | Blood pressure after the administration, 72 hours (difference from the absolute value before administration) ([3]; 72 hours) [mm-Hg]
COC(=O)C1=C(C)NC(C)=C(C(=O)OC/C=C/c2cccc(O)c2)C1c1cccc([N+](=O)[O-])c1 (stereo not drawn) [Test Compound 25, Methyl 3-(3-hydroxyphenyl)-2(E)propenyl 1,4-dihydro-2,6-dimethyl-4-(3-nitrophenyl)-pyridine-3,5-dicarboxylate] | 1.94 | 53 |  |  |  |  |  |  | 
Methyl 3-(4-hydroxyphenyl)-2(E)-propenyl 1,4-dihydro-2,6-dimethyl-4-(3-nitrophenyl)pyridine-3,5-dicarboxylate [Test Compound 1] |  |  | -38.6 | -21.2 | -21.0 | -19.2 | 4.1 | 60 | 
Methyl 3-(4-hydroxyphenyl)-2-propynyl 1,4-dihydro-2,6-dimethyl-4-(3-nitrophenyl)-pyridine-3,5-dicarboxylate [Test Compound 12] |  |  | -18.0 | -25.8 | -19.8 | -14.6 | 0.78 | 13 | 
Methyl 4-(4-methylthiophenyl)-3(E)-butenyl 1,4-dihydro-2,6-dimethyl-4-(3-nitrophenyl)-pyridine-3,5-dicarboxylate [Test Compound 15] |  |  | -75.4 | -66.8 | -20.8 | -10.6 | 0.062 | 0.23 | -9.6
